Data on 3 molecules can be found in patent US11065293B2 (priority 2016, dated 2021).

Holding throughout (format): in vivo, rats
Series [1] in a line: tail flick latency after Taxol-induced pain. The note with it: Taxol 20 mg/kg day 0 to day 5; day 3, day 7 and day 14; composition 21 days twice daily, vs contrast group. Background: In hot-plate and tail-flick tests a longer latency is read as antinociception.
Description: To understand the effect of presented pharmaceutical composition on cancer pain, the experiment was following: 6 to 7 week-old female rats (20-24 grams, ICR) were divided into control group, contrast group and experimental group. […] In contrast group and experimental group, rats were administered Taxol® (20 mg/kg) from day 0 to day 5 to induce the pain. Besides, the experimental group were also treated with presented pharmaceutical composition for 7 days before administered Taxol®, and continuously treated for 14 days after administered Taxol®. Therefore, the total days of presented pharmaceutical composition administered in experimental group is 21 days. The administered method is twice daily, and the dosage was 0.5-1.67 uL/mouse. On day 3, 7 and 14 during the drug administration, the tail flick latency (Tail-Flick Unit 37360) was conducted. The tail flick latency is used to evaluate the degree of change of pain threshold by heating the tail of rat through infrared.
The nature of series [2]: organ weight after Taxol administration. The note with it: day 15, contrast group (Taxol) vs control group, experimental group even lower than control group. From the text: Cancer pain is a kind of pain caused by cancer, which is most common symptoms and most feared symptoms for patients. If the pain is not controlled properly, the life quality of patients would be affected severely. To understand the effect of presented pharmaceutical composition on cancer pain, the experiment was following: 6 to 7 week-old female rats (20-24 grams, ICR) were divided into control group, contrast group and experimental group. In control group, rats were not gave any medication. In contrast group and experimental group, rats were administered Taxol® (20 mg/kg) from day 0 to day 5 to induce the pain. Besides, the experimental group were also treated with presented pharmaceutical composition for 7 days before administered Taxol®, and continuously treated for 14 days after administered Taxol®. Therefore, the total days of presented pharmaceutical composition administered in experimental group is 21 days. The administered method is twice daily, and the dosage was 0.5-1.67 uL/mouse. On day 3, 7 and 14 during the drug administration, the tail flick latency (Tail-Flick Unit 37360) was conducted. The tail flick latency is used to evaluate the degree of change of pain threshold by heating the tail of rat through infrared.
Organ hypertrophy is common side effect induced by chemotherapy drugs. To understand the impact of the presented pharmaceutical compositions on organs, the female rats of example 5 were sacrificed on day 15. The heart, liver, spleen and kidney acquired from rats were weighted respectively.

The test system of series [3] is white blood cells. The note with it: for the numbers of white blood cell, Day 0 before chemotherapy: day 0 before cyclophosphamide, experimental group pretreated 5 days with composition, disease and contrast groups not yet treated; for the numbers of white blood cell, Day 4 after chemotherapy: day 4 after cyclophosphamide, G-CSF on day 2 to day 4, composition twice daily 0.5-1.67 uL/mouse; for the numbers of white blood cell, Day 7 after chemotherapy: day 7 after cyclophosphamide; for the numbers of white blood cell, Day 10 after chemotherapy: day 10 after cyclophosphamide; for numbers of white blood cell (in words): disease group vs normal group, contrast group on day 7 and day 10, experimental group vs contrast group after chemotherapy. From the text: Furthermore, a common side effect of chemotherapy is a drop in the number of white blood cells, which leads to an increased risk of getting an infection. Currently, granulocyte colony stimulating factor (G-CSF) treatment can make white blood cell levels go up faster. However, patients may have one or more side effects of using G-CSF. To understand the effect of present pharmaceutical composition on white blood cells, cyclophosphamide-induced leukopenia experiment execute as follows: 6 to 7 week-old female rats (20-24 grams, ICR) were divided into normal group, disease group, contrast group and experimental group. In normal group, rats were not gave any medication. In disease, contrast and experimental group, rats were administered cyclophosphamide on day 0 to induce leukopenia. Besides, in contrast group, rats were also administered G-CSF on day 2 to day 4. In experimental group, rats were treated with presented pharmaceutical composition for 5 days before administered cyclophosphamide, and continuously treated for 10 days after administered cyclophosphamid. Therefore, the total days of presented pharmaceutical composition administered in experimental group is 15 days. The administered method of presented pharmaceutical composition is twice daily, and the dosage was 0.5-1.67 uL/mouse. The rats in each group were phlebotomized on day 0 before chemotherapy, and on day 4, day 7 and day 10 after chemotherapy.

Consider `CC(=O)O[C@H]1C(=O)[C@@]2(C)[C@H]([C@H](OC(=O)c3ccccc3)[C@]3(O)C[C@H](OC(=O)[C@H](O)[C@@H](NC(=O)c4ccccc4)c4ccccc4)C(C)=C1C3(C)C)[C@]1(OC(C)=O)CO[C@@H]1C[C@@H]2O` [Taxol®], for which the tail flick latency result in series [1] is “lower”. Also, the heart weight entry in series [2] (FIG. 8A) is on record as “significantly heavier”. Besides, the liver weight result in series [2] (FIG. 8B) is reported as “significantly heavier”. Besides, the spleen weight entry in series [2] (FIG. 8C) was “significantly heavier”. In series [2] (FIG. 8D), the kidney weight result is recorded as “significantly heavier”.

On to `O=P1(N(CCCl)CCCl)NCCCO1` (stereo not drawn) [cyclophosphamide], for which, in series [3], the “the numbers of white blood cell, Day 0 before chemotherapy” value was determined as 887; the “the numbers of white blood cell, Day 4 after chemotherapy” value is on record as 56; the “the numbers of white blood cell, Day 7 after chemotherapy” value is 333; the “the numbers of white blood cell, Day 10 after chemotherapy” value is on record as 772. In series [3], the “numbers of white blood cell (in words)” value is “extremely reduced”.

B1: G-CSF: granulocyte colony stimulating factor, given day 2 to day 4 after cyclophosphamide; contrast group of leukopenia experiment (protein, UniProt P09919 31-207, looked up)
Granulocyte …: TPLGPASSLPQSFLLKCLEQVRKIQGDGAALQEKLVSECATYKLCHPEELVLLGHSLGIPWAPLSSCPSQALQLAGCLSQLHSGLFLYQGLLQALEGISPELGPTLDTLQLDVADFATTIWQQMEELGMAPALQPTQGAMPAFASAFQRRAGGVLVASHLQSFLEVSYRVLRHLAQP
For the molecule B1, in series [3], the “the numbers of white blood cell, Day 0 before chemotherapy” value is given as 843; the “the numbers of white blood cell, Day 4 after chemotherapy” value was determined as 51; the “the numbers of white blood cell, Day 7 after chemotherapy” value came out at 528; the “the numbers of white blood cell, Day 10 after chemotherapy” value amounted to 768. Also, the “numbers of white blood cell (in words)” value in series [3] is reported as “increase”.
